Laboratory results: patent publication US5863776A, “Method of preparing apoenzyme” (Research Development Foundation, priority 1996, dated 1999)
Changes are numbered by the printed parent chain. Names may count otherwise. “Also recorded” adds a separate entry of the source.

T1: MAO B (Homo sapiens, UniProt P27338)
T1 construct: expressed in transfected cells; host or cells: COS-7 (African green monkey), riboflavin-containing (Rib+) or riboflavin-depleted (Rib-), transient electroporation
T1 sequence (P27338 1-520): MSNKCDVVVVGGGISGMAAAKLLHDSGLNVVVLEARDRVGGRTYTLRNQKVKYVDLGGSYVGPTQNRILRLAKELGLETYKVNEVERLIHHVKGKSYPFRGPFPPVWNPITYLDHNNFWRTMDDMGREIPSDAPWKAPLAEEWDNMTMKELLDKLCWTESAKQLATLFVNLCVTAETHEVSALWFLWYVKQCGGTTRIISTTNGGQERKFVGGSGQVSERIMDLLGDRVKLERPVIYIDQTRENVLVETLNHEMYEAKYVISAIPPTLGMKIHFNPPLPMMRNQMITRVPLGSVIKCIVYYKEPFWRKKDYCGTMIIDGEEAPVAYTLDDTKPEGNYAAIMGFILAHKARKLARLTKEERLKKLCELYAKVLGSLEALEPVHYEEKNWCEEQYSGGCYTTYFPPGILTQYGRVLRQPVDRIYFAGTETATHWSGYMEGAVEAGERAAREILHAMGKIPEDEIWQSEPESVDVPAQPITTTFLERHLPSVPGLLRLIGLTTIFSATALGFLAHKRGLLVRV

B1: E34A: MAO B with Glu in position 34 replaced with Ala (protein, UniProt P27338 2-520, looked up, variant E34A)
Amine oxidase …: SNKCDVVVVGGGISGMAAAKLLHDSGLNVVVLAARDRVGGRTYTLRNQKVKYVDLGGSYVGPTQNRILRLAKELGLETYKVNEVERLIHHVKGKSYPFRGPFPPVWNPITYLDHNNFWRTMDDMGREIPSDAPWKAPLAEEWDNMTMKELLDKLCWTESAKQLATLFVNLCVTAETHEVSALWFLWYVKQCGGTTRIISTTNGGQERKFVGGSGQVSERIMDLLGDRVKLERPVIYIDQTRENVLVETLNHEMYEAKYVISAIPPTLGMKIHFNPPLPMMRNQMITRVPLGSVIKCIVYYKEPFWRKKDYCGTMIIDGEEAPVAYTLDDTKPEGNYAAIMGFILAHKARKLARLTKEERLKKLCELYAKVLGSLEALEPVHYEEKNWCEEQYSGGCYTTYFPPGILTQYGRVLRQPVDRIYFAGTETATHWSGYMEGAVEAGERAAREILHAMGKIPEDEIWQSEPESVDVPAQPITTTFLERHLPSVPGLLRLIGLTTIFSATALGFLAHKRGLLVRV
B2: E34Q: MAO B with Glu in position 34 replaced with Gln (protein, UniProt P27338 2-520, looked up, variant E34Q)
Amine oxidase …: B1 Amine oxidase … with A33Q

Assays:
MAO B [1] = biological target: T1, MAO B; test: FAD coupling in intact cells: MAO B enzymatic activity after electroporation of MAO B cDNA with cofactor into Rib^- COS-7 cells ([^14 C] benzylamine substrate); assay type: cell-based; parameters: Percent of Holo-MAO B Activity: concentration or dose not given beside the values
Experimental: (§1) Wild-type or mutant MAO B cDNAs were transiently transfected into COS-7 cells by electroporation (23) as previously described (18). Briefly, Rib^+ - or Rib^- COS-7 cells were harvested during late log phase growth and resuspended to a concentration of 3.1×10^6 cells/ml in either riboflavin-containing or riboflavin-free medium, respectively. Wild-type or mutant MAO B cDNAs ([…]) were added to 0.8 ml of cell suspension. […] Electroporation was carried out in a Bio-Rad Gene Pulser with a setting of 250 V and 500 μF. Cells were resuspended in 15 ml of riboflavin-containing or riboflavin-free medium and incubated at 37° C. with 5% CO2. Transfected COS-7 cells were harvested at 48 hours and homogenized in a lysis solution containing 20 mM Tris-HCl, 1 mM EDTA, 0.5 mM PMSF, pH 8.0. The homogenate was diluted with an equal volume of the same buffer supplemented with 300 mM NaCl to obtain a 150 mM final NaCl concentration. Triton X-100 (Pierce) was added to the lysate to give a final concentration of 0.25%, and the samples were allowed to stir for 50 min. at 4° C. to extract MAO B from the outer mitochondrial membrane. After Triton extraction, the lysate was centrifuged at 1300×g for 5 min. at 4° C. to remove insoluble cell debris.
(§2) MAO B activity was assayed radiometrically by a modification of the method of Wurtman and Axelrod (26) as described previously (18). Briefly, the reaction mixture contained 200 μl of 50 mM sodium phosphate buffer (pH 7.4), 3.6 nmole of 55 mCi/mmol [^14 C] benzylamine hydrochloride (Amersham), 10 nmoles of unlabeled benzylamine and 10 μl of cell lysate. Samples were run in triplicate, and one out of each set was denatured with […] of 6N HCl prior to the addition of substrate to serve as an internal control. All reactions were incubated for 9 minutes at 37° C., and terminated by the addition of 25 μl of 6N HCl. The reaction product was extracted with 500 μl of toluene, and an aliquot (200 μl) of the organic phase from each sample was counted in liquid scintillation fluid (Bio-Safe) in a Beckman LB 3801 scintillation counter.
FMN or riboflavin were also capable of restoring approximately 75% of MAO B holoenzyme activity. However, only 40% of MAO B holoenzyme activity was obtained by the addition of 8α-hydroxyriboflavin.
Various cofactors were added with MAO B cDNA into Rib^- COS7 cells

[2] = test system: L-gulono-g-lactone oxidase; conditions: cited from earlier work
MAO B [3] = biological target: T1, MAO B; test: Quantitation of expressed MAO B protein by ELISA in transfected COS-7 cells; assay type: cell-based; parameters: MAO B Expressed: unit not given here; conditions: cofactor added with MAO B cDNA into Rib^- COS-7 cells; 48 hours; mean ± SE, three experiments
Experimental: Total protein concentrations of samples containing MAO B holoenzyme, apoenzyme, or variant MAO Bs were determined by a MicroBCA kit (Pierce). All samples were then adjusted to equal protein concentrations and assayed for MAO B protein by ELISA using a modification of the method of Yeomanson and Billett (25) as described previously (18).
MAO B cDNA was expressed sequentially at different time intervals in these cells during this riboflavin depletion process (FIG. 2). Each data point in FIG. 2 represents an individual expression assay. For each assay, a sample of COS-7 cells grown in riboflavin-free medium were transfected with MAO B cDNA via electroporation. Concurrently, Rib^+ COS-7 cells were transfected with MAO B cDNA to serve as a control. Following incubation for 48 hours, the cells were homogenized and assays were performed to determine protein concentration, MAO B concentration by ELISA using polyclonal antibodies, and MAO B activity using [^14 C] benzylamine.
An equal amount of MAO B cDNA (15 μg) was expressed in both types of […]

MAO B [4] = biological target: T1, MAO B; test: FAD coupling in vitro (flavinylation assay in cell lysate, 30° C.); assay type: biochemical; conditions: 30° C.
Experimental: (- - - x - - - ). […] The enzymatic activity of each sample was determined at 1 hour time intervals using [^14 C] benzylamine as substrate.
Apo-MAO B was obtained by expressing MAO B cDNA in Rib^- COS-7 cells. The cells were then harvested and homogenized as described above. One half of the lysate was stirred in the presence of 0.25% Triton X-100 at 4° C. for 50 min. to extract apo-MAO B from the outer mitochondrial membrane. The second half of the lysate was not extracted with Triton X-100 to permit MAO B to remain in the membrane. […] Assays were also carried out in the presence of an energy mixture (10 mM ATP, 32 mM PEP and 2.4 μg pyruvate kinase) and 25% glycerol in the reaction vials. Each sample was run in triplicate. After 1, 2 or 3 hours incubation at 30° C., each sample was assayed for MAO B activity as described below.
as §2

MAO B [5] = conditions: mutation at Glu^34; cited from earlier work
MAO B [6] = test: [^14 C] FAD incorporation into wild-type or mutant MAO B in Rib^- COS-7 cells (immunoprecipitation, fluorography); assay type: binding, human; conditions: about 59 kDa; equal MAO B concentrations
Experimental: Mutagenesis was carried out by the method of Deng and Nickoloff (22) using a Transformer Site-directed Mutagenesis kit (Clontech). Glu in position 34 was replaced with Asp (E34D), Gln (E34Q), or Ala (E34A), and Val in position 10 was replaced with Ile (V10I) as described by Kwan et al. (18).
as §1
Transfected Rib^+ - or Rib^- COS-7 cells were homogenized, and extracted with 0.25% Triton X-100 for 50 minutes at 4° C. The cell lysates were centrifuged at 1300×g for 5 minutes, and an aliqout of each supernatant was analyzed for MAO B concentration by ELISA. All supernatants were then adjusted to equal MAO B concentration and incubated with polyclonal goat anti-MAO B antibody (10 μg) overnight at 4° C. Protein-G Sepharose beads (Pierce) were added (50 μl) and incubation was continued for 3 hours. The protein-G Sepharose/goat antibody/MAO B immmunocomplex was collected by centrifugation at 10,000×g for 20 seconds and washed 6 times with 150 μl of 20 mM Tris buffer, pH 8.0. The immunocomplex was then dissolved in SDS-PAGE sample buffer and analyzed by Western blot or fluorography.
The immunoprecipitated proteins (obtained as described above) were subjected to electrophoresis in a 10% SDS-polyacrylamide gel and examined by Western blotting as previously described (18). The immunoprecipitated proteins (obtained as described above) were subjected to electrophoresis in a 10% SDS-polyacrylamide gel. The SDS-PAGE gel was fixed by soaking in 7% acetic acid, 10% methanol, 83% H2 O for 1 hour, and then processed for fluorography as described by Bonner and Laskey (27). The dried gel was exposed to Kodak X-OMAT AR film at -80° C. for 2 weeks.
The expressed wild-type and variant MAO Bs were adjusted to equal concentrations using ELISA before immunoprecipitation, and then analyzed by fluorography. The amount of incorporation of [^14 C] […] FAD was incorporated into the enzyme.

Percent of Holo-MAO B Activity (MAO B [1]; relative to holo-MAO B expressed in Rib^+ COS-7 cells, 2880 min) [%] | MAO B Expressed (MAO B [3]) | Molecule | restoration of active MAO B (in words) (MAO B [1]; cofactor added with MAO B cDNA during electroporation) | Enzymatic Activity (MAO B [1]; cofactor added with MAO B cDNA into Rib^- COS-7 cells, 48 hours, mean ± SE, three experiments) | covalently bound FAD [2] | enzymatic activity upon addition of FAD [2] | MAO B catalytic activity after adding exogenous FAD to apo-MAO B (MAO B [4]; Triton extracted or non-extracted lysate) | MAO B activity after adding exogenous FAD to apo-MAO B (MAO B [4]; with energy mixture and glycerol) | loss of activity (in words) (MAO B [5]) | [^14 C] FAD incorporation (band on fluorogram) (MAO B [6])
~75 | 0.86 ± 0.03 | Cc1cc2nc3c(=O)[nH]c(=O)nc-3n(C[C@H](O)[C@H](O)[C@H](O)COP(=O)(O)OP(=O)(O)OC[C@H]3O[C@@H](n4cnc5c(N)ncnc54)[C@H](O)[C@@H]3O)c2cc1C [FAD] | equal levels of MAO B activity; also recorded: active MAO B (containing FAD) was obtained | 0.85 ± 0.01 μmol benzylamine/minute/mg MAO | no covalently bound FAD could be obtained | Enzymatic activity was observed | no MAO B catalytic activity was observed; also recorded: MAO B activity could not be regenerated | no MAO B activity was obtained; also recorded: unsuccessful |  | 
 |  | B1 |  |  |  |  |  |  | complete loss of activity; also recorded: devoid of enzymatic activity | did not exhibit bands
 |  | B2 |  |  |  |  |  |  | complete loss of activity; also recorded: devoid of enzymatic activity | did not exhibit bands
